Assay [1] has as its system OVCAR-3. As to the kind of experiment: Anticancer activity against Homo sapiens (human) OVCAR3 cells at 0.1 to 100 uM by SRB assay. It is filed as functional, cell-based.
For assay [2], the system named is Pseudomonas aeruginosa. As to the kind of experiment: Antibacterial activity against Pseudomonas aeruginosa ATCC 27853 assessed as diameter of growth inhibition zone at 20 mg/ml after 24 hr by disk diffusion method. It is filed as functional. Conditions: ATCC 27853, 24 h, read-out: DIZ. Background: In agar diffusion tests the substance spreads into inoculated agar from a disc or well.

In assay [3] the test system is PC-3. Description: Anticancer activity against Homo sapiens (human) PC3 cells at 0.1 to 100 uM by SRB assay. It counts as functional, cell-based. In general terms: Sulforhodamine B stains cellular protein and so reports cell mass.
The test system of assay [4] is Salmonella typhi. As to the kind of experiment: Antibacterial activity against Salmonella enterica subsp. enterica serovar Typhi ATCC 19430 assessed as growth inhibition after 24 hr by disk diffusion method. It is filed as functional.
In assay [5] the test system is Klebsiella pneumoniae. Description: Antibacterial activity against Klebsiella pneumoniae ATCC 15380 assessed as diameter of growth inhibition zone at 20 mg/ml after 24 hr by disk diffusion method. Conditions: ATCC 15380, 24 h, read-out: DIZ. It is filed as functional.
Assay [6] concerns Priestia megaterium. As to the kind of experiment: Antibacterial activity against Bacillus megaterium ATCC 12872 assessed as diameter of growth inhibition zone at 20 mg/ml after 24 hr by disk diffusion method. It counts as functional. As to conditions: ATCC 12872, 24 h, read-out: DIZ.
In assay [7] the test system is MDA-MB-435. As to the kind of experiment: Anticancer activity against Homo sapiens (human) MDA-MB-435 cells at 0.1 to 100 uM by SRB assay. It is filed as functional, cell-based.
In assay [8] the test system is Escherichia coli. Description: Antibacterial activity against Escherichia coli ATCC 25922 assessed as diameter of growth inhibition zone at 20 mg/ml after 24 hr by disk diffusion method. It is filed as functional. As to conditions: ATCC 25922, 24 h, read-out: DIZ.
The subject of assay [9] is Salmonella typhi. Description: Antibacterial activity against Salmonella enterica subsp. enterica serovar Typhi ATCC 19430 assessed as diameter of growth inhibition zone at 20 mg/ml after 24 hr by disk diffusion method. Conditions: ATCC 19430, 24 h, read-out: DIZ. It is filed as functional.
Assay [10] deals with Citrobacter freundii. As to the kind of experiment: Antibacterial activity against Citrobacter freundii ATCC 8090 = MTCC 1658 assessed as diameter of growth inhibition zone at 20 mg/ml after 24 hr by disk diffusion method. It counts as functional. Conditions: ATCC 8090 = MTCC 1658, 24 h, read-out: DIZ.

Structures are written as SMILES. Calls of active or inactive are those of the source. The calls are words filed in the database; no cut-off is given here.

Take `N#CC1=C(N)Oc2[nH]c(=O)[nH]c(=O)c2C1c1ccco1` (stereo not drawn): the result in assay [1], in [3] and in assay [7] was inactive. Moreover, the zone of inhibition at 20000 µg/mL in [2] turned out to be 14 mm; in [5] it was 16 mm; in assay [6] it was 14 mm; in assay [8] it was 12 mm; in [9], 18 mm; in assay [10], 10 mm. The MIC in assay [4] stood at 10 µg.

With `CC1(C)CC(=O)C2=C(C1)OC(N)=C(C#N)C2c1cccs1` (stereo not drawn), the zone of inhibition at 20000 µg/mL in [2] was 20 mm; in assay [5], 19 mm; in [6], 10 mm; in [8], 20 mm; in [9] it was 22 mm; in assay [10], 10 mm. The MIC in [4] came to 10 µg.

For the compound `COc1cccc2c1C(=O)c1c(O)c3c(c(O)c1C2=O)C[C@@](O)(C(=O)CO)C[C@@H]3O[C@H]1C[C@H](N)[C@H](O)[C@H](C)O1`, the result in assay [1], in assay [3] and in assay [7] was Active.

On to `Cc1ccsc1C1C(C#N)=C(N)OC2=C1C(=O)CC(C)(C)C2` (stereo not drawn), for which the zone of inhibition at 20000 µg/mL in assay [2] was determined as 22 mm; in assay [5] it was 20 mm; in assay [6], 12 mm; in [8], 21 mm; in [9], 19 mm; in [10] it was 10 mm. For the same compound, the MIC in [4] was 10 µg.

Consider `CC1(C)CC(=O)C2=C(C1)OC(N)=C(C#N)C2c1ccc[nH]1` (stereo not drawn), for which the zone of inhibition at 20000 µg/mL in [2] stood at 20 mm; in assay [5], 19 mm; in [6], 12 mm; in assay [8] it was 20 mm; in assay [9] it was 22 mm; in [10], 10 mm. For the same compound, the MIC in assay [4] was found to be 10 µg.

For the compound `N#CC1=C(N)Oc2[nH]c(=O)[nH]c(=O)c2C1c1cccs1` (stereo not drawn), the zone of inhibition at 20000 µg/mL in [2] was 18 mm; in assay [5], 20 mm; in assay [6], 12 mm; in [8] it was 15 mm; in assay [9], 22 mm; in assay [10], 12 mm. Also, the MIC in assay [4] stood at 10 µg.

On to `N#CC1=C(N)Oc2[nH]c(=O)[nH]c(=O)c2C1c1ccc[nH]1` (stereo not drawn), for which the zone of inhibition at 20000 µg/mL in assay [2] worked out at 18 mm; in assay [5], 20 mm; in assay [6], 12 mm; in assay [8], 14 mm; in assay [9] it was 22 mm; in [10], 12 mm. Also, the MIC in assay [4] amounted to 10 µg.

For `Cc1ccc(C2C(C#N)=C(N)Oc3[nH]c(=O)[nH]c(=O)c32)o1` (stereo not drawn), the zone of inhibition at 20000 µg/mL amounted to 15 mm in assay [2]; 17 mm in assay [5]; 14 mm in [6]; 12 mm in [8]; 18 mm in [9]; 10 mm in [10]. In addition, in assay [4], the MIC is 10 µg.

Consider `Cc1ccsc1C1C(C#N)=C(N)Oc2[nH]c(=O)[nH]c(=O)c21` (stereo not drawn), for which the zone of inhibition at 20000 µg/mL in assay [2] came to 20 mm; in assay [5] it was 22 mm; in assay [6], 10 mm; in [8], 16 mm; in assay [9], 21 mm; in [10], 12 mm. Also, the MIC in assay [4] is 10 µg.

For the compound `Cc1ccc(C2C(C#N)=C(N)OC3=C2C(=O)CC(C)(C)C3)s1` (stereo not drawn), the zone of inhibition at 20000 µg/mL in assay [2] turned out to be 22 mm; in [5] it was 21 mm; in [6], 10 mm; in [8], 22 mm; in assay [9] it was 19 mm; in [10] it was 10 mm. Moreover, the MIC in [4] stood at 10 µg.

For `CC1(C)CC(=O)C2=C(C1)OC(N)=C(C#N)C2c1ccco1` (stereo not drawn), the result in assay [1], in [3] and in assay [7] was inactive. Moreover, the zone of inhibition at 20000 µg/mL turned out to be 14 mm in [2]; 15 mm in assay [5]; 12 mm in assay [6]; 16 mm in assay [8]; 15 mm in assay [9]; 10 mm in assay [10]. Further, the MIC in assay [4] turned out to be 10 µg.

On to `Cc1ccc(C2C(C#N)=C(N)Oc3[nH]c(=O)[nH]c(=O)c32)s1` (stereo not drawn), for which the zone of inhibition at 20000 µg/mL in [2] turned out to be 22 mm; in [5], 22 mm; in assay [6] it was 10 mm; in [8], 16 mm; in [9], 20 mm; in assay [10], 12 mm. Moreover, the MIC in assay [4] stood at 10 µg.

Consider `Cc1ccc(C2C(C#N)=C(N)OC3=C2C(=O)CC(C)(C)C3)o1` (stereo not drawn), for which the zone of inhibition at 20000 µg/mL is 15 mm in [2]; 15 mm in assay [5]; 12 mm in assay [6]; 17 mm in assay [8]; 16 mm in assay [9]; 10 mm in assay [10]. Moreover, in assay [4], the MIC came to 10 µg.

The values are drawn from ChEMBL document CHEMBL3046029, “Green approach towards the facile synthesis of dihydropyrano(c)chromene and pyrano[2,3-d]pyrimidine derivatives and their biological evaluation” (2013).
